{
  "source": "patent US20160162632A1",
  "about": "“METHOD OF SCREENING REACTIONS OR BIOLOGICAL PATHWAYS INDUCED BY COMPOUND” (Samsung Electronics Co., Ltd., priority 2014, published 2016)",
  "system": "biochemical pathways with which genes with a change in expression level are associated",
  "assay": "Selection among predicted reactions using differentially expressed genes (DEGs) by dapsone and DAVID pathway annotation",
  "type": "cell-based",
  "conditions": "reaction included in the \"arginine and prolyl metabolism\" pathway from DEGs; FIG. 7",
  "description": "Genes that are differentially expressed (differentially expressed genes, DEGs) by dapsone were experimentally determined. Information about biochemical pathways to which the DEGs are involved was obtained by a functional annotation tool of bioinformatics resources (DAVID Bioinformatics Resources version 6.7 operated by the National Institute of Allergy and Infectious Diseases ([…]), Bethesda, Md.; see Huang D W, Sherman B T, Lempicki R A. “Systematic and integrative analysis of large gene lists using DAVID Bioinformatics Resources,” Nature Protoc. 2009; 4(1):44-57; Huang D W, Sherman B T, Lempicki R A. “Bioinformatics enrichment tools: paths toward the comprehensive functional analysis of large gene lists,” Nucleic Acids Res. 2009; 37(1):1-13).\nThe term “Term” refers to a pathway related to a gene list. The terms “Genes” and “Count” denotes the numbers of genes included in the corresponding terms. The length of the square in the column for “Genes” indicates the number of genes included in the corresponding terms. % refers to a ratio of genes included in the corresponding terms to genes input as DEGs of dapson. These pathways were identified in terms of whether each of the predicted reaction as described in Example 2.1. is included therein.",
  "data": [
    {"smiles": "Nc1ccc(S(=O)(=O)c2ccc(N)cc2)cc1", "note": "[dapsone, 4,4′-diaminodiphenylsulfone]", "values": [
      {"measurement": "enzyme reaction determined as induced in a cell by treatment", "result": "ATP:creatine N-phosphotransferase reaction"}
    ]}
  ]
}
